# Source: article PMC7226079, “Combining Virtual Screening Protocol and In Vitro Evaluation towards the Discovery of BACE1 Inhibitors” (Biomolecules, 2020)
# Several values for one entry are separate records, joined by “and”; a condition that tells them apart may be missing. Identical values can stand only once. Like-named read-outs stand apart in the source and are kept apart here. Peptide text beside a SMILES is read from it. * marks the point of attachment. Cbz = O=C(OCc1ccccc1)*
# Tests used:
# BACE1 [1] = biological target: T1, BACE1 (Homo sapiens, UniProt P56817); test: Cell-free FRET assay for BACE1 activity (β-Secretase (BACE1) Activity Detection Kit CS0010); format: biochemical; details: for Average percent inhibition at 10 μM: Table S2, thirty-four in vitro tested compounds, mean of at least three independent experiments in triplicate
# T1 construct: purchased Sigma-Aldrich Co. LLC; CS0010
# BACE1 [2] = biological target: T1, BACE1; design: method as in ChEMBL23 [24]; details: known BACE1 inhibitors of Training/Test sets; ref ChEMBL23 [24]; cited from earlier work
# [3] = 10 μM, mean of at least three independent experiments performed in triplicate, read-out: Average Percent Inhibition at 10 μM
# T1 sequence (P56817 46-501): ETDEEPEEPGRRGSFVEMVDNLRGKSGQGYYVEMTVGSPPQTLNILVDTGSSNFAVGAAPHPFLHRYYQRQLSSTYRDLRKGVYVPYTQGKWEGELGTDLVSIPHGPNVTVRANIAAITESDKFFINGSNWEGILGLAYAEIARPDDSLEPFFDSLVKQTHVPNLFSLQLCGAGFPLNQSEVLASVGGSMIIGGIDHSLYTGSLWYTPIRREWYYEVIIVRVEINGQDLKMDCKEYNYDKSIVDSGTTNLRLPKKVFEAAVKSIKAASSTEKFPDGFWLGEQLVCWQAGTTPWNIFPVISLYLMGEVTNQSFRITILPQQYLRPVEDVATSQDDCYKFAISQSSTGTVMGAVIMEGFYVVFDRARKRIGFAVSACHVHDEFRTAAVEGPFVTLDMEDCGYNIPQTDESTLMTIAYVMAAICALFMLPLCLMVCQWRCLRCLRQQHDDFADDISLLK
SMILES,IC50 (BACE1 [2]) [nM],also measured
CCN(CC)CCNc1ccc(CO)c2oc3ccccc3c(=O)c12 [Compound 18],,inhibition at 10 µM (BACE1 [1]; [3]): 20.6%
CC1=NC2(CC(C3CCOC(C)(C)C3)Oc3ccc(-c4cccc(Cl)c4)cc32)N=C1N (stereo not shown) [ChEMBL3653708],5,
Cc1cc(=O)oc2cc(OCC(O)CN3CCN(c4ccc(F)cc4)CC3)ccc12 (stereo not shown) [Compound 12],,inhibition at 10 µM (BACE1 [1]; [3]): 33.5%
O=C(Nc1cc(Br)ccc1N1CCNCC1)c1cccc2ccccc12 [ChEMBL203120],1000,
CCO[C@H]1CC[C@]2(CC1)Cc1ccc(-c3cccc(OC)c3)cc1C21N=C(N)N(C)C1=O (stereo partly shown) [ChEMBL3978126],15,
NC1=NC(c2ccncc2)(c2cccc(-c3cncc(F)c3)c2)c2cccc(F)c21 (stereo not shown) [ChEMBL2177905],137,
"CC(=O)[C@]1(O)Cc2c(O)c3c(c(O)c2[C@@H](O[C@H]2C[C@H](N)[C@H](O)[C@H](C)O2)C1)C(=O)c1ccccc1C3=O [Compound 21, idarubicin]",,inhibition at 10 µM (BACE1 [1]; [3]): 18.1%
"CC(CCc1ccc(O)cc1)NCCc1ccc(O)c(O)c1 (stereo not shown) [Compound 16, dobutamine]",,inhibition at 10 µM (BACE1 [1]; [3]): 29.9%
CC(=O)c1cccc(OCC(O)CN2CCN(c3ccc(C)cc3)CC2)c1 (stereo not shown) [NSC147852],,Average percent inhibition at 10 μM (BACE1 [1]; 10 μM): 10.6%
NC(Cc1ccccc1)C(=O)NCC(=O)NC(Cc1ccccc1)C(=O)NCC(=O)O (stereo not shown) [Compound 15] (H-FGFG-OH; configuration not given here),,inhibition at 10 µM (BACE1 [1]; [3]): 30.7%
COC1CCC2(CC1)Cc1ccc(-c3cccc(C#N)c3)cc1C21N=C(N)c2ccccc21 (stereo not shown) [ChEMBL3673221],6,
O=C(NC(Cc1cnc[nH]1)C(=O)NC(Cc1ccc(O)cc1)C(=O)O)OCc1ccccc1 (stereo not drawn) [NSC333463] (Cbz-His-Tyr-OH; configuration not given here),,Average percent inhibition at 10 μM (BACE1 [1]; 10 μM): 13.4%
CCc1cn2c3c(cc(C(=O)N[C@@H](Cc4ccccc4)[C@H](O)CNC4CC4)cc13)N(CC)S(=O)(=O)CC2 [ChEMBL533064],20,
CC1(C)OCC(N)=N[C@](C)(c2cc(NC3COc4cc(Cl)ccc43)ccc2F)C1(F)F (stereo partly shown) [ChEMBL3670919],320,
NC1=N[C@@]2(CCOC1)c1cc(-c3cccnc3F)ccc1Oc1cnc(-c3ccc(F)c(F)c3)cc12 [ChEMBL2152912],2,
CC#CCOc1cnc(C(=O)Nc2ccc(Cl)c(C3(C(F)F)N=C(N)OC4CC43)c2)cn1 (stereo not shown) [Compound 4],3.9,
[C-]#[N+]c1ccc(C(=O)Nc2ccc(F)c([C@]34COC[C@@]3(F)CSC(N)=N4)c2)nc1 [ChEMBL3672943],6.6,
O=C(C[n+]1ccccc1)Nc1cccc(C(=O)Nc2ccc(Cl)cc2)c1 [ChEMBL1163225],1000,
NC1=N[C@@]2(c3cc(-c4cccnc4F)ccc3Oc3c(F)cc(N4CCOCC4)cc32)c2nccn21 [ChEMBL3677276],0.7,
CC(C)c1ccc(CO[C@H]2CN(S(=O)(=O)c3ccccc3)C[C@@H]2Nc2nc3cc(F)ccc3[nH]2)cc1 [ChEMBL3746896],480,
NC1=N[C@@]2(CO1)c1cc(-c3cccnc3F)ccc1Oc1c2cc(N2CCOCC2)nc1F [ChEMBL3394224],0.3,
O=C(CCc1ccccc1)c1ccccc1OCC(O)CN1CCCCC1 (stereo not shown) [Compound 13],,inhibition at 10 µM (BACE1 [1]; [3]): 34.7%
N#CC(NCCCNC(C#N)c1ccccc1)c1ccccc1 (stereo not shown) [NSC81537],,Average percent inhibition at 10 μM (BACE1 [1]; 10 μM): 8.6%

SMILES,IC50 (BACE1 [2]) [nM],also measured
CC(=O)c1ccccc1OCC(O)CN1CCN(c2cccc(C(F)(F)F)c2)CC1 (stereo not shown) [NSC147843],,Average percent inhibition at 10 μM (BACE1 [1]; 10 μM): 9.6%
CC1(c2cccc(NC(=O)c3ncc(Br)cn3)c2)COCC(N)=N1 (stereo not shown) [ChEMBL3653345],540,
COc1cc(C(O)C(O)c2cc(CN3CCOCC3)c(O)c(OC)c2)cc(CN2CCOCC2)c1O (stereo not shown) [NSC55229],,Average percent inhibition at 10 μM (BACE1 [1]; 10 μM): 12.1%
Cc1cc(C2(c3cccc(-c4cncnc4)c3)N=C(N)N(C)C2=O)ccn1 (stereo not shown) [ChEMBL598258],80,
O=C1c2ccccc2C(=O)c2c3c(cc(NCCNCCO)c21)N(CCO)CCN3 [Compound 20],,inhibition at 10 µM (BACE1 [1]; [3]): 19.5%
COc1cc(F)c2c(c1)C1(N=C(N)n3ccnc31)c1cc(-c3cccnc3F)ccc1O2 (stereo not shown) [ChEMBL3677269],9,
CC(C)C[C@H](NC(=O)[C@@H](NC(=O)[C@@H](N)CNC(=O)c1nn[nH]n1)C(C)C)C(=O)N[C@@H](Cc1ccccc1)[C@@H](O)C(=O)Nc1cc(-c2nn[nH]n2)cc(-c2nn[nH]n2)c1 [ChEMBL439521],1.2,
O=C1c2ccccc2C(=O)c2c(NCCNCCO)ccc(NCCNCCO)c21 [NSC196473],,inhibition at 10 µM (BACE1 [1]; read-out: Average percent inhibition at 10 μM): 12.4%
COc1ccc(C(=O)/C=C/c2cn(CC(O)CN3CCN(C)CC3)c3ccccc23)cc1 (stereo not shown) [Compound 11],,inhibition at 10 µM (BACE1 [1]; [3]): 50.3%; IC50 (BACE1 [1]; from the dose-response curve (Figure 8)): 15400 nM and 15000 nM
Cc1ccc(S(=O)(=O)Oc2ccc3oc4c(CO)ccc(NCCN(C)C)c4c(=O)c3c2)cc1 [Compound 19],,inhibition at 10 µM (BACE1 [1]; [3]): 21.2%
CC(=O)c1ccccc1OCC(O)CN1CCN(c2ccccc2)CC1 (stereo not shown) [NSC147850],,Average percent inhibition at 10 μM (BACE1 [1]; 10 μM): 8.7%
"O=C1c2c(O)ccc(O)c2C(=O)c2c(NCCNCCO)ccc(NCCNCCO)c21 [Compound 17, mitoxantrone]",,inhibition at 10 µM (BACE1 [1]; [3]): 22.6%
NC1=N[C@](CF)(c2cc(NC(=O)c3cc4ccccc4cn3)ccc2F)[C@H]2C[C@H]2O1 [ChEMBL3688633],500,
NC1=NC(c2ccccc2)(C2CCCCC2)C(=O)N1CCCCCC(=O)O (stereo not shown) [ChEMBL607527],950,
NC1=NC2(CO1)c1cc(NC(=O)c3ncc(Br)cn3)ccc1OCC21CC1 (stereo not shown) [ChEMBL3650820],661,
CC(=O)c1ccc(OCC(O)CN2CCN(c3ccccc3)CC2)c(C)c1 (stereo not shown) [NSC147841],,Average percent inhibition at 10 μM (BACE1 [1]; 10 μM): 13.0%
O=C1c2ccccc2C(=O)c2c(NCCCNCCO)ccc(NCCCNCCO)c21 [NSC278467],,Average percent inhibition at 10 μM (BACE1 [1]; 10 μM): 17.0%
NC1=NC2(CO1)c1cc(-c3cc(Cl)cnc3F)ccc1OC1(CCC1)C21COC1 (stereo not shown) [ChEMBL3703272],827,
CC(=O)Nc1ccc(N2C(=O)CC(NCc3ccc(Cl)cc3Cl)C2=O)cc1 (stereo not shown) [Compound 14],,inhibition at 10 µM (BACE1 [1]; [3]): 31.3%
CC1(C)N=C(N)N=C(N)N1c1cccc(OCCCOc2ccc(NC(=O)CBr)cc2)c1 [Compound 22],,inhibition at 10 µM (BACE1 [1]; [3]): 18.1%
CCc1ccc2c(c1)C1(N=C(N)N(C)O1)[C@]1(CC[C@H](OC)CC1)C2 (stereo partly shown) [ChEMBL3656204],521,
CN1C(=O)CC2(N=C1N)c1cc(-c3cccnc3F)ccc1Oc1c2cc(-c2ccnc(F)c2)nc1F (stereo not shown) [ChEMBL3639946],2.4,
